According to PMC6891695, “Evaluation of Antifouling Potential and Ecotoxicity of Secondary Metabolites Derived from Red Algae of the Genus Laurencia” (Marine Drugs, 2019):

Assays:
A. amphitrite cyprids = assay: Substrate exploration analysis: SIPC deposition by cyprids (anti-SIPC Western blot on wells); type: in vivo, Amphibalanus amphitrite; settings: for effect on deposition of SIPC protein on the surface of the bioassay plates: concentrations at the EC50 values, p > 0.05; for effect on deposition of SIPC protein on the surface of the bioassay plates / effect on adjusted integrated density of anti-SIPC immunoreactive signals: 24 h; for effect on adjusted integrated density of anti-SIPC immunoreactive signals: indicated concentrations, unpaired two-tailed t-test with Welch's correction
Procedure: To test the substrate exploratory behaviour of A. amphitrite cyprids in the presence of selected metabolites, settlement bioassays were conducted by adding 10 cyprids into individual wells of a 24-well polystyrene sterile microplate (Orange Scientific, Braine l’Alleud, Belgium) containing 2 mL of ASW (25‰). These experiments were repeated twice with four replicates per experiment. Plates were covered and sealed with Parafilm® to avoid evaporation and incubated at 25 °C away from any light source for 24 h. Then, the 2 mL of ASW was aspirated from each well and all settled and non-settled cyprids were counted and removed. Wells were then blocked by incubation with 5% BSA in TBST (25 mM Tris-HCl, pH 7.5, 150 mM NaCl, 0.1% Tween 20) for 1 h at room temperature. Wells were then incubated for 1 h at room temperature with the mouse anti-SIPC monoclonal antibody at 1:100 dilution of the cloned cell line culture supernatant in TBST with 5% BSA, washed with TBST (3 × 5 min) and incubated with an HRP-conjugated anti-mouse antibody (1:1000, Cell Signaling Technology, Danvers, MA, USA) for 1 h at room temperature. Wells were then washed with TBST (3 × 5 min) and immunostaining was detected using the 20 × LumiGLO® chemiluminescence kit (Cell Signaling Technology, Danvers, MA, USA) in a Bio-Rad ChemiDoc XRS + Gel Photo Documentation System. To measure the relative intensity of immunoreactive spots on this format of Western blots, images were analyzed with ImageJ 1.52k (NIH, Bethesda, MD, USA), and the adjusted integrated density of the signals was calculated using the formula: Adjusted integrated density (IntDen) = IntDen of experimental region of interest (ROI)—(mean of background ROI × area of experimental ROI). Data were exported and statistically analyzed with GraphPad Prism v.6 using unpaired, two-tailed t-tests at p = 0.05, with Welch’s correction.

A. salina nauplii = assay: Artemia salina toxicity assay; type: in vivo; settings: 24 and 48 h
Summary of the method: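 Instar I nauplii, hatched over 24 h in artificial seawater at 25 °C, exposed ten per well to compounds added in methanol for 48 h in the dark at 25 °C. Mortality scored as no appendage movement within 10 s; IC50/EC50 from normalized-response curve fits, three experiments with four replicates.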

SMILES	effect on deposition of SIPC by the cyprids relative to control (ASW) (A. amphitrite cyprids; 10 μM)	effect on deposition of SIPC protein on the surface of the bioassay plates (A. amphitrite cyprids)	effect on adjusted integrated density of anti-SIPC immunoreactive signals (A. amphitrite cyprids)	toxicity against A. salina nauplii (in words) (A. salina nauplii)
CC(C)[C@@H]1CC=C[C@H]2[C@H]3[C@](C)(CC[C@]12CBr)[C@@H](Br)CC[C@@]3(C)O [Bromosphaerol, reference compound]	did not affect deposition of SIPC	no statistically significant effect	none of the two tested compounds (p > 0.05) affected	did not show any toxicity
CC1=C2CC[C@@](C)(Cl)[C@@H](Br)C[C@]2(C)[C@@H](C)[C@@H](Br)[C@@H]1O [Compound 9, perforenol]	–	no statistically significant effect	none of the two tested compounds (p > 0.05) affected	–
